Source: patent publication US20070105822A1, “Novel uses of known drugs” (priority 2003, published 2007)

Tests used:
[1] = in vivo; cited from earlier work
[2] = system: human PBMC depleted of γδ T cells; experiment: TNFα ELISA on PBMC after magnetic depletion of γδ T cells; format: cell-based; details: 100 μM pamidronate, 10 μM risedronate; FIG. 2A, 2B
Description: (§1) γδ T cells were washed in RPMI and incubated overnight in R10 at 37° C. 96-well nitrocellulose plates (Millipore) were incubated overnight at 4° C. with 15 μg/ml antihuman-IFN-γ primary antibody (clone 1-D1K; Mabtech, Sweden). The plates were then washed twice with RPMI and blocked with R10 for 3 hours at 37° C. R10 was decanted by inversion and assays applied to each well before incubation at 37° C. as detailed below. Assays were terminated by washing once in water, followed by 5 washes in PBS. Secondary antibody (anti-human-IFN-γ-Biotin antibody clone 7-B6-1; Mabtech) was applied at 1 μg/ml and the plate incubated for 100 minutes at room temperature (RT). The plate was washed 6 times with PBS before application of Streptavidin-ALP (1:1000 in PBS; Mabtech) for 40 minutes at RT. […]
10^8 human PBMC were incubated with 10 μg/ml of anti-human pan-γδ antibody for 30 minutes on ice. […] The success of depletion was determined by FACS analysis with the anti-CD3 and pan-γδ antibodies detailed above, and was >95% efficient in all cases shown.
5×10^6 PBMC from a healthy donor+/−magnetic depletion of γδ T cells were suspended in 1 ml of R10+/−antigen in 75×5 mm FACS tubes at 37° C. and 5% CO2 for the times shown. […] The percentage of cytokine positive cells (fluorescence intensity>20) is shown in the upper right corner of each panel.

Vγ9JPVδ2 T cells = experiment: IFNγ ELISpot with Vγ9JPVδ2 T cell clone Bob and spinner HeLa antigen presenting cells; format: cell-based, human; details: 1,000 Vγ9JPVδ2 T cells, 25,000 spinner HeLa cells per well, 6 hours; FIG. 1A
Description: (§2) γδ T cells were isolated from human peripheral blood using a magnetic separation kit (TCR γ/δ Microbead Kit and MS columns from Miltenyi Biotech). Once isolated, cells were resuspended in T cell medium (RPMI supplemented with 100 U/ml penicillin, 100 μg/ml streptomycin, 10% FCS, 10% T-STIM (BD Biosciences), 200 U/ml Proleukin (Chiron)) containing 2×10^6 γ-irradiated PMBC/ml from three individuals and 2 μg/ml PHA. Cells were maintained with T cell medium, and restimulated with mixed irradiated PBMC and PHA every three weeks. For cloning, the same mix was used to grow cells by limiting dilution in 96-well U-boftomed plates. Cells that grew were confirmed to be γδ T cells with Vγ9 antibody.
as §1, with “(RT).” for “(RT). The plate was washed 6 times with PBS before application of Streptavidin-ALP (1:1000 in PBS; Mabtech) for 40 minutes at RT.”

human PBMC = experiment: TNFα ELISA on direct ex vivo human PBMC exposed to nBPs; format: cell-based; details: 10 μM risedronate or 100 μM pamidronate, 12 hours, FIG. 1B
Description: γδ T cells were washed in RPMI and incubated overnight in R10 at 37° C. 96-well nitrocellulose plates (Millipore) were incubated overnight at 4° C. with 15 μg/ml antihuman-IFN-γ primary antibody (clone 1-D1K; Mabtech, Sweden). The plates were then washed twice with RPMI and blocked with R10 for 3 hours at 37° C. R10 was decanted by inversion and assays applied to each well before incubation at 37° C. as detailed below. Assays were terminated by washing once in water, followed by 5 washes in PBS. Secondary antibody (anti-human-IFN-γ-Biotin antibody clone 7-B6-1; Mabtech) was applied at 1 μg/ml and the plate incubated for 100 minutes at room temperature (RT). The plate was washed 6 times with PBS before application of Streptavidin-ALP (1:1000 in PBS; Mabtech) for 40 minutes at RT. […] A TNFα ELISA kit (Peprotech) was used in accordance with the manufacturers instructions.
In FIG. 1 (B), nBPs are shown to stimulate TNFA production from direct ex vivo human PBMC. […] 60 μl aliquots were removed at the specified time and added to TNFα ELISA assays.

Vγ9-expressing T cells = experiment: Intracellular cytokine staining (ICS) of fresh PBMC exposed to nBPs; format: cell-based, human; details: for IL6 and TNFα production by Vγ9-expressing cells by ICS: 100 μM pamidronate, FIG. 2D
Description: 10^6 fresh PBMC were incubated in FACS tubes with brefeldin A (10 μg/ml R10) for 5 hours after pulsing with relevant antigens for 1 hour. The cells were then washed, permeabilised in 20% FACSLyse (BD Biosciences), washed twice in ice cold PBS/0.1% BSA and stained on ice with pre-titred APC-conjugated anti-IFNγ, anti-TNFα and anti-IL-2 and PE-conjugated anti-Vγ9 mAbs for 20 minutes. For single cytokine analysis (FIG. 2D), cells were stained with PE-conjugated anti-IL6, APC-conjugated anti-TNFα and FITC-conjugated anti-Vγ9 antibodies. In each case, cells were then washed, resuspended in PBS & analysed immediately.
5×10^6 PBMC from a healthy donor+/−magnetic depletion of γδ T cells were suspended in 1 ml of R10+/−antigen in 75×5 mm FACS tubes at 37° C. and 5% CO2 for the times shown. 60 μl of cell supernatant was removed and applied to TNFα ELISA plates in duplicate and developed according to the manufacturers instructions. Standard deviation from the mean of the two replicate ELISAs is shown although, in most cases, this error is smaller than the plot symbol. In (C), exposure to nBPs activates PBMC that express a Vγ9 receptor and not other T cells or B cells. 10^6 fresh human PBMC were exposed to R10 (top panel) or R10+10 μM risedronate (bottom panel) for 6 hours in an intracellular cytokine staining (ICS) assay. Plots show all the cells in the lymphocyte gate stained for PE-Vγ9 and APC-cytokines (TNFα, IL2, and IFNγ). Exposure to risedronate induces cytokine production only in lymphocytes that express a Vγ9 TCR. The percentage of total lymphocytes in the Vγ9^+ cytokine^+ gate shown is indicated in the upper right of each panel. Almost 10% of the lymphocytes expressing a Vγ9 receptor are activated by exposure to nBPs. […] Plots are gated to show only Vγ9-expressing lymphocytes. […] The percentage of cytokine positive cells (fluorescence intensity>20) is shown in the upper right corner of each panel.

circulating γδ T cells = details: cited from earlier work
γδ T cell = details: cited from earlier work
Vγ9JPVδ2 T cell clones = experiment: TNFα ELISA on Vγ9JPVδ2 T cell clones activated by risedronate; format: cell-based, human; details: 10 μM risedronate, 10^6 T cells, clones P, M and Bob; FIG. 1C
Description: as §2
as §1, with “(RT).” for “(RT). The plate was washed 6 times with PBS before application of Streptavidin-ALP (1:1000 in PBS; Mabtech) for 40 minutes at RT.”

In the case of `O=P(O)(O)C(Cl)(Cl)P(=O)(O)O` [clodronate, disodium clodronate], the acute phase response [1] is given as “has not been observed”.

In the case of `CC(O)(P(=O)(O)O)P(=O)(O)O` [etidronate, disodium etidronate], the acute phase response [1] is listed as “has not been observed”.

In the case of `NCCC(O)(P(=O)(O)O)P(=O)(O)O` [pamidronate, disodium pamidronate], the “TNFα production by PBMC after magnetic depletion of γδ T cells” value [2] is reported as “removed the ability of PBMC to produce TNFα”, the “activation of clonal Vγ9JPVδ2 T cells by IFNγ ELISpot” value (Vγ9JPVδ2 T cells) is reported as “activate” and the “TNFα production from direct ex vivo human PBMC” value (human PBMC) is reported as “large amounts of TNFα”. For the same compound, the “IL6 and TNFα production by Vγ9-expressing cells by ICS” value (Vγ9-expressing T cells; 10 μM risedronate) was “make both IL6 and TNFα”, the “number of circulating γδ T cells in patients with acute phase reaction” value (circulating γδ T cells; 1 and 3 weeks post-infusion) was “substantial increase” and the “γδ T cells as % of CD3+ cells post-infusion” value (circulating γδ T cells; one patient, expanded from 4.6%) was 70%.

With `O=P(O)(O)C(O)(Cc1cccnc1)P(=O)(O)O` [risedronate, risedronate sodium] the “TNFα production by PBMC after magnetic depletion of γδ T cells” value [2] was “removed the ability of PBMC to produce TNFα”, the “activation of clonal Vγ9JPVδ2 T cells by IFNγ ELISpot” value (Vγ9JPVδ2 T cells) was “activate” and the “TNFα production from direct ex vivo human PBMC” value (human PBMC) was “large amounts of TNFα”. The “lymphocytes expressing a Vγ9 receptor activated (cytokine+ by ICS)” value (Vγ9-expressing T cells; 10 μM risedronate (100 μM pamidronate, data not shown), 6 hours, TNFα, IL2, IFNγ staining, FIG. 2C) was roughly 10%, the “expression of the Vγ9 TCR” value (Vγ9-expressing T cells; 10 μM risedronate, 6 hours, ICS) was “lowers the expression of the Vγ9 TCR” and the “IL6 and TNFα production by Vγ9-expressing cells by ICS” value (Vγ9-expressing T cells; 10 μM risedronate) was “make both IL6 and TNFα”. The “concentration stimulating γδ T cell expansion from human PBMC” value (γδ T cell) was no less than 10 nM and the “activation (TNFα production) of Vγ9JPVδ2 T cell clones” value (Vγ9JPVδ2 T cell clones) was “extremely rapid”.

For `O=P(O)(O)C(Sc1ccc(Cl)cc1)P(=O)(O)O` [tiludronate], the acute phase response [1] is listed as “has not been observed”.
